Source: PubChem BioAssay (NCI)
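In this assay, cells in 96-well plates receive the compound at five concentrations for 48 hours. Endpoints are linearly interpolated between the surrounding concentrations. The concentration for full growth arrest is given as TGI.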

How the values were obtained:
Assay in all cases: inhibition of tumour cell growth, NCI panel, 48 h
A549 NSCLC = test system: A549 NSCLC
ACHN renal = test system: ACHN renal
CAKI-1 renal = test system: CAKI-1 renal
HCT-15 colon = test system: HCT-15 colon
HOP-62 NSCLC = test system: HOP-62 NSCLC
IGROV1 ovarian = test system: IGROV1 ovarian
KM12 colon = test system: KM12 colon
M14 melanoma = test system: M14 melanoma
MOLT-4 leukemia = test system: MOLT-4 leukemia
NCI-H460 lung = test system: NCI-H460 lung
OVCAR-3 ovarian = test system: OVCAR-3 ovarian
OVCAR-4 ovarian = test system: OVCAR-4 ovarian
SF-539 CNS = test system: SF-539 CNS
SN12C renal = test system: SN12C renal
SNB-19 CNS = test system: SNB-19 CNS
SR leukemia = test system: SR leukemia
SW-620 colon = test system: SW-620 colon
UACC-257 melanoma = test system: UACC-257 melanoma
DMS 114 small cell lung = test system: DMS 114 small cell lung
NCI-H522 lung = test system: NCI-H522 lung

| Compound | TGI (A549 NSCLC) | TGI (ACHN renal) | TGI (CAKI-1 renal) | TGI (HCT-15 colon) | TGI (HOP-62 NSCLC) | TGI (IGROV1 ovarian) | TGI (KM12 colon) | TGI (M14 melanoma) | TGI (MOLT-4 leukemia) | TGI (NCI-H460 lung) | TGI (OVCAR-3 ovarian) | TGI (OVCAR-4 ovarian) | TGI (SF-539 CNS) | TGI (SN12C renal) | TGI (SNB-19 CNS) | TGI (SR leukemia) | TGI (SW-620 colon) | TGI (UACC-257 melanoma) | TGI (DMS 114 small cell lung) | TGI (NCI-H522 lung) |
| --- | --- | --- | --- | --- | --- | --- | --- | --- | --- | --- | --- | --- | --- | --- | --- | --- | --- | --- | --- | --- |
| COc1ccc(-c2c(C(C)=O)c(C)n(C3OC(CO)C(O)C(O)C3O)c(=S)c2C#N)cc1 (configuration not stated) | > 100 µM | > 100 µM | > 100 µM | > 100 µM | > 100 µM | > 100 µM | > 100 µM | > 100 µM | > 100 µM | > 100 µM | > 100 µM | > 100 µM | > 100 µM | > 100 µM | 33.6 µM | > 100 µM | > 100 µM | > 100 µM | – | – |
| NC(CO)c1ccccc1 (configuration not stated) | > 100 µM | > 100 µM | > 100 µM | > 100 µM | > 100 µM | > 100 µM | > 100 µM | > 100 µM | > 100 µM | > 100 µM | > 100 µM | > 100 µM | > 100 µM | – | > 100 µM | > 100 µM | > 100 µM | > 100 µM | > 100 µM | > 100 µM |
